# In patent publication US12059420B2 (BRISTOL-MYERS SQUIBB COMPANY, priority 2018, dated 2024):
# Structures can show the parent of a compound that is named as a salt.
# Target: T1, human IDO1 (Homo sapiens, UniProt P14902)
# T1 construct: expressed in transfected cells
# Experiment: IDO inhibition assay in HEK293 cells stably expressing human IDO1 (kynurenine production, Ehrlich reagent, absorbance 490 nm)
# Format: cell-based
# Conditions: 20 hours incubation with compound, 500 nM reference standard = 100% inhibition, read-out: IDO1 HEK Human IC50
# Experimental: HEK293 cells were transfected with a pCDNA-based mammalian expression vector harboring human IDO1 cDNA (NM 002164.2) by electroporation. They were cultured in medium (DMEM with 10% FBS) containing 1 mg/ml G418 for two weeks. Clones of HEK293 cells that stably expressed human IDO1 protein were selected and expanded for IDO inhibition assay.
# The human IDO1/HEK293 cells were seeded at 10,000 cells per 50 μL per well with RPMI/phenol red free media contains 10% FBS in a 384-well black wall clear bottom tissue culture plate (Matrix Technologies LLC) 100 nL of certain concentration of compound was then added to each well using ECHO liquid handling systems. The cells were incubated for 20 hours in 37° C. incubator with 5% CO2.
# The compound treatments were stopped by adding trichloroacetic acid (Sigma-Aldrich) to a final concentration at 0.2%. The cell plate was further incubated at 50° C. for 30 minute. The equal volume supernatant (20 μL) and 0.2% (w/v) Ehrlich reagent (4-dimethylaminobenzaldehyde, Sigma-Aldrich) in glacial acetic acid were mixed in a new clear bottom 384-well plate. This plate was then incubated at RT for 30 minute. The absorbance at 490 nm was measured on Envision plate reader.
# Compound IC50 values were calculated using the counts of 500 nM of a reference standard treatment as one hundred percent inhibition, and counts of no compound but DMSO treatment as zero percent inhibition.
# T1 sequence (P14902 whole entry): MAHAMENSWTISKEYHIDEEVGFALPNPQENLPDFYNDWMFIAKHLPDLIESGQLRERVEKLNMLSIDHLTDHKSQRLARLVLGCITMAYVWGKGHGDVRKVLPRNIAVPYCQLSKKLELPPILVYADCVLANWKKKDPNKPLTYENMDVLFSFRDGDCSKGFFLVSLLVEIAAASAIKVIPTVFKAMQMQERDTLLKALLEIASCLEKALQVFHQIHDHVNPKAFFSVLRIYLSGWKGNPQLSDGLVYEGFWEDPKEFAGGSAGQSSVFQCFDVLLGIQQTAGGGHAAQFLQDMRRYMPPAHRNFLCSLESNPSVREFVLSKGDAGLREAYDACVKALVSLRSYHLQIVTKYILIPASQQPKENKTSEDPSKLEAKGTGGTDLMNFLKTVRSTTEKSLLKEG
row,Structure (SMILES),IC50 [nM]
1,"CC(C)CN(Cc1ccccc1)c1cc(Nc2cnc(Cl)nc2)cc(-c2ccccc2-c2nnn[nH]2)n1 [Example 164, 6-(2-(1H-tetrazol-5-yl)phenyl)-N2-benzyl-N4-(2-chloropyrimidin-5-yl)-N2-isobutylpyridine-2,4-diamine]",7.9
2,"CCCN(Cc1ccccc1)c1cc(NC(=O)Cc2cccnc2)cc(-c2ccccc2-c2nn[nH]n2)n1 [Example 226, N-(2-(2-(2H-tetrazol-5-yl)phenyl)-6-(benzyl(propyl)amino)pyridin-4-yl)-2-(pyridin-3-yl)acetamide]",3360
3,"CCCN(Cc1ccccc1)c1cc(NC(=O)Nc2ccc(OC(F)F)cc2)cc(-c2ccccc2-c2nnn[nH]2)n1 [Example 271, 1-(2-(2-(1H-tetrazol-5-yl)phenyl)-6-(benzyl(propyl)amino)pyridin-4-yl)-3-(4-(difluoromethoxy)phenyl)urea]",46.3
4,CCCN(Cc1ccccc1)c1cc(NC(=O)N(C)c2ccc(C(F)(F)F)cc2)cc(-c2ccccc2-c2nnn[nH]2)n1 [Example 298],38.9
5,"Cc1ccc(CC(=O)Nc2cc(-c3ccccc3-c3nnn[nH]3)nc(N3CCN(Cc4ccccc4)C(=O)C3)c2)cc1 [Example 76, N-(2-(2-(1H-tetrazol-5-yl)phenyl)-6-(4-benzyl-3-oxopiperazin-1-yl)pyridin-4-yl)-2-(p-tolyl)acetamide, TFA]",998
6,"CCCN(Cc1ccccc1)c1cc(NC(=O)CC2CCCC2)cc(-c2ccccc2-c2nn[nH]n2)n1 [Example 218, N-(2-(2-(2H-tetrazol-5-yl)phenyl)-6-(benzyl(propyl)amino)pyridin-4-yl)-2-cyclopentylacetamide]",1970
7,"CC(C)CN(Cc1ccc(F)cc1)c1cc(Nc2ccc3c(c2)OCO3)cc(-c2ccccc2-c2nnn[nH]2)n1 [Example 46, 6-(2-(1H-tetrazol-5-yl)phenyl)-N4-(benzo[d][1,3]dioxol-5-yl)-N2-(4-fluorobenzyl)-N2-isobutylpyridine-2,4-diamine]",1.1
8,"CCCN(Cc1ccccc1)c1cc(NC(=O)Cc2cnccn2)cc(-c2ccccc2-c2nn[nH]n2)n1 [Example 210, N-(2-(2-(2H-tetrazol-5-yl)phenyl)-6-(benzyl(propyl)amino)pyridin-4-yl)-2-(pyrazin-2-yl)acetamide]",1710
9,"CC(C)CN(Cc1ccccc1)c1cc(NC(=O)Cc2ccc(F)c(F)c2)cc(-c2ccccc2-c2nnn[nH]2)n1 [Example 228, N-(2-(2-(1H-tetrazol-5-yl)phenyl)-6-(benzyl(isobutyl)amino)pyridin-4-yl)-2-(3,4-difluorophenyl)acetamide]",669
10,"CC(C)CN(c1cc(NC(=O)Nc2ccc(F)cc2F)cc(-c2ccccc2-c2nnn[nH]2)n1)C1CCCCC1 [Example 287, 1-(2-(2-(1H-Tetrazol-5-yl)phenyl)-6-(cyclohexyl(isobutyl)amino)pyridin-4-yl)-3-(2,4-difluorophenyl)urea]",5990
11,CCCN(Cc1ccccc1)c1cc(NC(=O)NC2CCCCC2)cc(-c2ccccc2-c2nnn[nH]2)n1 [Example 300],5210
12,CCCN(Cc1ccccc1)c1cc(NC(=O)CC2CCC(C)CC2)cc(-c2ccccc2-c2nnn[nH]2)n1 (stereo not drawn) [Example 294],774
13,"CC(C)CN(Cc1ccccc1)c1cc(Nc2ncc(C(F)(F)F)cn2)cc(-c2ccccc2-c2nnn[nH]2)n1 [Example 74, 6-(2-(1H-tetrazol-5-yl)phenyl)-N2-benzyl-N2-isobutyl-N4-(5-(trifluoromethyl)pyrimidin-2-yl)pyridine-2,4-diamine, TFA]",75.6
14,CCOc1ccc(NC(=O)Nc2cc(-c3ccccc3-c3nnn[nH]3)nc(N(CC)Cc3ccccc3)c2)cc1 [Example 279],537
15,"CCCN(Cc1ccccc1)c1cc(NC(=O)Cc2c(C)noc2C)cc(-c2ccccc2-c2nn[nH]n2)n1 [Example 213, N-(2-(2-(2H-tetrazol-5-yl)phenyl)-6-(benzyl(propyl)amino)pyridin-4-yl)-2-(3,5-dimethylisoxazol-4-yl)acetamide]",651
16,"CCCN(Cc1ccccc1)c1cc(NC(=O)Nc2ccc(C)cc2)cc(-c2ccccc2C(=O)NS(=O)(=O)N2CCN(C)CC2)n1 [Example 18, 2-(6-(benzyl(propyl)amino)-4-(3-(p-tolyl)ureido)pyridin-2-yl)-N-((4-methylpiperazin-1-yl)sulfonyl)benzamide]",2430
17,CCCN(Cc1ccccc1)c1cc(NC(=O)CC2CCOCC2)cc(-c2ccccc2-c2nnn[nH]2)n1 [Example 295],3730

row,Structure (SMILES),IC50 [nM]
1,"Cc1ccc(CC(=O)Nc2cc(-c3ccccc3-c3nnn[nH]3)nc(N(Cc3ccccc3)CC(C)C)c2)cc1 [Example 87, N-(2-(2-(1H-tetrazol-5-yl)phenyl)-6-(benzyl(isobutyl)amino)pyridin-4-yl)-2-(p-tolyl)acetamide, TFA]",40.7
2,"CCCN(c1cc(NC(=O)Nc2ccc(C)cc2)cc(-c2ccccc2-c2nnn[nH]2)n1)C1CCCCC1 [Example 258, 1-(2-(2-(1H-tetrazol-5-yl)phenyl)-6-(cyclohexyl(propyl)amino)pyridin-4-yl)-3-(p-tolyl)urea]",411
3,"CCCN(Cc1ccccc1)c1cc(NC(=O)Nc2cc(C)no2)cc(-c2ccccc2-c2nnn[nH]2)n1 [Example 266, 1-(2-(2-(1H-tetrazol-5-yl)phenyl)-6-(benzyl(propyl)amino)pyridin-4-yl)-3-(3-methylisoxazol-5-yl)urea]",2700
4,"Cc1ncccc1Nc1cc(-c2ccccc2-c2nnn[nH]2)nc(N(Cc2ccc(F)cc2)CC(C)C)c1 [Example 45, 6-(2-(1H-tetrazol-5-yl)phenyl)-N2-(4-fluorobenzyl)-N2-isobutyl-N4-(2-methylpyridin-3-yl)pyridine-2,4-diamine, TFA]",239
5,"CCCN(Cc1ccccc1)c1cc(Nc2nc(-c3ccccc3)cs2)cc(-c2ccccc2-c2nnn[nH]2)n1 [Example 59, 6-(2-(1H-tetrazol-5-yl)phenyl)-N2-benzyl-N4-(4-phenylthiazol-2-yl)-N2-propylpyridine-2,4-diamine]",139
6,"CCC(CC(=O)O)c1cc(Nc2ccc(Cl)cc2)cc(N(Cc2ccc(F)cc2)CC(C)C)n1 (single isomer, unassigned) [Example 248, 3-(4-((4-chlorophenyl)amino)-6-((4-fluorobenzyl)(isobutyl)amino)pyridin-2-yl)pentanoic acid]",217
7,"Cc1nccnc1Nc1cc(-c2ccccc2-c2nnn[nH]2)nc(N(Cc2ccccc2)CC(C)C)c1 [Example 167, 6-(2-(1H-tetrazol-5-yl)phenyl)-N2-benzyl-N2-isobutyl-N4-(3-methylpyrazin-2-yl)pyridine-2,4-diamine]",206
8,"CCCN(Cc1ccccc1)c1cc(NC(=O)Cc2ccc(C)cc2)cc(-c2ccccc2S(=O)(=O)NC(C)=O)n1 [Example 34, N-(2-(2-(N-acetylsulfamoyl)phenyl)-6-(benzyl(propyl)amino)pyridin-4-yl)-2-(p-tolyl) acetamide]",237
9,"CCCN(Cc1ccccc1)c1cc(NC(=O)Nc2ccc(C)cc2)cc(-c2ccccc2-c2nnn[nH]2)n1 [Example 260, 1-(2-(2-(1H-tetrazol-5-yl)phenyl)-6-(benzyl(propyl)amino)pyridin-4-yl)-3-(p-tolyl)urea]",9.9
10,"CC(C)CN(Cc1ccccc1)c1cc(Nc2nccc(N3CCOCC3)n2)cc(-c2ccccc2-c2nnn[nH]2)n1 [Example 53, 6-(2-(1H-tetrazol-5-yl)phenyl)-N2-benzyl-N2-isobutyl-N4-(4-morpholinopyrimidin-2-yl)pyridine-2,4-diamine, TFA]",4.9
11,"CCN(Cc1ccccc1)c1nc(NC(=O)Nc2ccc(C)cc2)cc(-c2ccccc2-c2nnn[nH]2)n1 [Example 4, 1-(6-(2-(1H-tetrazol-5-yl)phenyl)-2-(benzyl(ethyl)amino)pyrimidin-4-yl)-3-(p-tolyl)urea]",952
12,"CCCN(Cc1ccccc1)c1cc(NC(=O)Cc2cc(OC)ccc2OC)cc(-c2ccccc2-c2nn[nH]n2)n1 [Example 204, N-(2-(2-(2H-tetrazol-5-yl)phenyl)-6-(benzyl(propyl)amino)pyridin-4-yl)-2-(2,5-dimethoxyphenyl)acetamide]",159
13,"CC(C)CN(Cc1ccc(F)cc1)c1cc(Nc2cccc(C(F)F)n2)cc(-c2ccccc2-c2nnn[nH]2)n1 [Example 47, 6-(2-(1H-tetrazol-5-y1)phenyl)-N4-(6-(difluoromethyl)pyridin-2-yl)-N2-(4-fluorobenzyl)-N2-isobutylpyridine-2,4-diamine]",17.2
14,"Cc1ccc(CC(=O)Nc2cc(-c3ccccc3-c3nnn[nH]3)nc(N3CCCC3)c2)cc1 [Example 131, N-(2-(2-(1H-tetrazol-5-yl)phenyl)-6-(pyrrolidin-1-yl)pyridin-4-yl)-2-(p-tolyl)acetamide]",1600
15,"Cc1ccc(CC(=O)Nc2cc(-c3cc(F)ccc3-c3nnn[nH]3)nc(N(Cc3ccccc3)CC(C)C)c2)cc1 [Example 89, N-(2-(benzyl(isobutyl)amino)-6-(5-fluoro-2-(1H-tetrazol-5-yl)phenyl)pyridin-4-yl)-2-(p-tolyl)acetamide, TFA]",150
16,"Cc1cc(F)cnc1Nc1cc(-c2ccccc2-c2nnn[nH]2)nc(N(Cc2ccccc2)CC(C)C)c1 [Example 152, 6-(2-(1H-tetrazol-5-yl)phenyl)-N2-benzyl-N4-(5-fluoro-3-methylpyridin-2-yl)-N2-isobutylpyridine-2,4-diamine]",129
